These results are taken from patent US20040209315A1, “Methods to identify agents that increase or decrease UBP43 activity and methods for use of such agents” (priority 2003, published 2004).

Data set [1] deals with UBP43± and UBP43−/− bone marrow cells. The data set is described as follows: Liquid bone marrow cell culture, Trypan blue dye exclusion assay. In kind it is cell-based, mice. As to conditions: 10 ng/ml, 48 hours. Here is the method: (a) Bone marrow cells isolated from UBP43+/+ and UBP43−/− mice were cultured in vitro in the presence or the absence of INFβ (100 units/ml) for 48 hours. TUNEL assay was performed to study the percentage of apoptosis cells. […] Cells were then subjected to Trypan blue dye exclusion assay. Each data point represents the mean of three independent experiments. Error bar represents standard deviation about the mean.
In vitro bone marrow cell culture.
TNFα and the type II IFN-IFNγ are commonly used to study bone marrow cell growth and apoptosis and in the analysis of various knockout mouse models.

The subject of data set [2] is UBP43+/+ and UBP43−/− mice. The data set is described as follows: Hematopoietic cell counting (peripheral white blood cells, bone marrow nucleated cells) after poly(I—C) injection. In kind it is in vivo. Here is the method:
(§1) (a) Seven mice of each group (UBP43 +/+ and UBP43−/−) were ip injected daily with poly(I—C). Viability was monitored daily. (b) UBP43+/+ and UBP43−/− mice (n=4 for each group) were ip injected daily with poly(I—C). The total number of white blood cells (WEC) in the peripheral blood was counted daily after each poly(I—C) injection. (c) UBP43+/+ and UBP43−/− mice (n=5 for each group) were either left untreated or were ip injected with poly(I—C) 24 h prior to bone marrow extraction. Bone marrow cells were counted in control and poly(I—C) injected group of mice (two femurs from each mouse).
(§2) Poly(I—C) injection and hematopoietic cell counting: Poly(I—C) (Sigma) was dissolved in phosphate buffered saline and intraperitoneally (ip) injected to mice at 5 μg/g body weight (gbw). Blood and bone marrow nucleated cells were counted in Turk solution (3% acetic acid and 0.01% crystal violet in H2O).
(§3) UBP43-null mice are sensitive to potent IFN-inducer poly(I—C). Injection with synthetic double stranded RNA-polyinosinic acid-polycytidylic acid (poly(I—C)) has been commonly used to induce endogenous IFN production in mice. […] There were dramatic decreases (over 90%) in the total number of white blood cells in peripheral blood and nucleated cells in bone marrow of UBP43−/− mice.

Data set [3] has as its system hematopoietic cells transplanted from UBP43+/+ or UBP43−/− mice. Kind of data set: Bone marrow transplantation, flow cytometric analysis of CD45.2+ donor blood cells before and after poly(I—C) injection. Type of data set: in vivo. The text has this:
(a) Hematopoietic cells transplanted from UBP43−/− mice to UBP43+/+ congenic strain mice are hypersensitive to poly(I—C) injection. Bone marrow cells (CD45.2+) from individual UBP43+/+ and UBP43−/− mice (n=4 for each group) were isolated and transplanted to lethally irradiated congenic strain mice (CD45.2−). Six months after the transplantation, flow cytometric analysis was done to determine the relative amount of peripheral blood cells contributed from the donor or recipient mice based on CD45-2 immunostaining before and after poly(I—C) injection (48 h). Flow cytometric analysis results from one representative mouse transplanted with UBP43+/+ or UBP43−/− bone marrow are presented. (b) UBP43−/− bone marrow cells are hypersensitive to IFNβ treatment. Bone marrow cells from UBP43+/+ and UBP43−/− mice were cultured at 2×10^4 cells/ml in CFU assay medium in the presence of various concentrations of IFNβ. Total colony number was counted after 12 days of culture. Results of a single representative experiment of two independent experiments are shown. […]
Bone marrow transplantation. […] The appearance of donor origin blood cells (CD45.2+) was detected by flow cytometric analysis with […] (FITC) conjugated CD45.2 antibodies (BD Biosciences). […]

Data set [4] has as its system UBP43+/+ and UBP43−/− mice. The data set is described as follows: Viability of mice after daily ip poly(I—C) injection. Type of data set: in vivo. As to conditions: daily ip poly(I—C) 5 μg/g body weight. On the procedure:
as §1, §2, §3

On to “IFNγ: type II IFN, proapoptotic cytokine (Peprotech)”, for which the “difference in cell death between UBP43± cells and UBP43−/− cells” value in data set [1] was “did not cause a significant difference”.
On the same count and under the same terms, in the case of TNF-α it was “did not cause a significant difference”.
On to “polyinosinic acid-polycytidylic acid [poly(I—C)]”, for which the “decrease in number of total peripheral white blood cells” value in data set [2] (UBP43+/+ mice, ip poly(I—C)) amounted to 20%. For the same substance, the “decrease in total bone marrow nucleated cells” value in data set [2] (UBP43+/+ mice, ip poly(I—C) 24 h prior to bone marrow extraction) stood at 30%. In data set [2] (UBP43−/− mice, ip poly(I—C)), the “decrease in total number of white blood cells in peripheral blood” value is on record as “over 90%”. Further, the “decrease in nucleated cells in bone marrow” value in data set [2] (UBP43−/− mice, ip poly(I—C) 24 h prior to bone marrow extraction) is given as “over 90%”. The “relative amount of CD45.2+ cells in the peripheral blood” value in data set [3] (UBP43+/+ donor, 48 h after poly(I—C) injection) is “did not change”. For the same substance, in data set [3] (UBP43−/− donor, 48 hours post administration, 79% before dosing), the “blood cells of the UBP43−/− genotype (CD45.2+)” value is recorded as 12%. Besides, the viability result in data set [4] (UBP43+/+ mice (n=7)) was “survived the course of treatment”. Further, in data set [4] (UBP43−/− mice (n=7)), the “time within which all mice died post treatment” value is not above 72 h.
